In PubChem BioAssay AID2060897 (Molecular Pharmacology Branch, DTP, NCI, 2025):
pIC50: −log10 of the molar value.

Tested on: 966289-007-R4-J1-PDC complex spheroid viability
Test: Anticancer human tumor 966289-007-R4-J1-PDC patient-derived pancreatic adenocarcinoma cell line growth inhibition [RAS]
Conditions: for pIC50: curve of first compound; for viability, T/C: stronger effect = lower value
Outline: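 Agents were tested in combination matrices in half-log decrements from a top concentration at or near clinical Cmax (10 microM if undetermined). Targets were multi-cell spheroids of tumour lines plus HUVEC and MSC stromal cells.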

[1] = second compound 0.0316 µM, first compound 0.0316 µM
[2] = second compound 0.0316 µM, first compound 0.1 µM
[3] = second compound 0.0316 µM, first compound 0.316 µM
[4] = second compound 0.0316 µM, first compound 1 µM
[5] = second compound 0.0316 µM, first compound 3.16 µM
[6] = second compound 0.0316 µM, first compound 10 µM
[7] = second compound 0.1 µM, first compound 0.0316 µM
[8] = second compound 0.1 µM, first compound 0.1 µM
[9] = second compound 0.1 µM, first compound 0.316 µM
[10] = second compound 0.1 µM, first compound 1 µM
[11] = second compound 0.1 µM, first compound 3.16 µM
[12] = second compound 0.1 µM, first compound 10 µM
[13] = second compound 0.316 µM, first compound 0.0316 µM
[14] = second compound 0.316 µM, first compound 0.1 µM
[15] = second compound 0.316 µM, first compound 0.316 µM
[16] = second compound 0.316 µM, first compound 1 µM
[17] = second compound 0.316 µM, first compound 3.16 µM
[18] = second compound 0.316 µM, first compound 10 µM
[19] = second compound 1 µM, first compound 0.0316 µM
[20] = second compound 1 µM, first compound 0.1 µM
[21] = second compound 1 µM, first compound 0.316 µM
[22] = second compound 1 µM, first compound 1 µM
[23] = second compound 1 µM, first compound 3.16 µM
[24] = second compound 1 µM, first compound 10 µM
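Also: spheroids exposed to agents for one week before readout.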
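For viability, T/C in this document: percent viability relative to DMSO vehicle control wells as 100%.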

For CC1(O)CCCC1n1c(=O)c(C(F)F)cc2cnc(NC3CCN(S(C)(=O)=O)CC3)nc21 (stereo unspecified) + C#Cc1c(F)ccc2cc(O)cc(-c3ncc4c(N5CC6CCC(C5)N6)nc(OCC56CCCN5CC(F)C6)nc4c3F)c12, the pIC50 (second compound 0.0316 µM) was 6.85, the pIC50 (second compound 0.1 µM) was 6.74 and the pIC50 (second compound 0.316 µM) was 6.63. It also gave a pIC50 (second compound 1 µM) of 6.66, a pIC50 (second compound 3.16 µM) of 6.66 and a pIC50 (second compound 10 µM) of 6.94. The viability, T/C [1] was 138%, the viability, T/C [2] was 57% and the viability, T/C [3] was 28.4%. For the same compound, the viability, T/C [4] was 33.5%, the viability, T/C [5] was 32.1% and the viability, T/C [6] was 5.74%. The viability, T/C [7] was 124%, the viability, T/C [8] was 70.9% and the viability, T/C [9] was 26.7%. For the same compound, the viability, T/C [10] was 33.5%, the viability, T/C [11] was 27.7% and the viability, T/C [12] was 5.83%. It also gave a viability, T/C [13] of 128%, a viability, T/C [14] of 71.8% and a viability, T/C [15] of 33.9%. It also gave a viability, T/C [16] of 35.5%, a viability, T/C [17] of 31.4% and a viability, T/C [18] of 5.81%. The viability, T/C [19] was 116%, the viability, T/C [20] was 72.4% and the viability, T/C [21] was 30.1%. For the same compound, the viability, T/C [22] was 33%, the viability, T/C [23] was 33.2% and the viability, T/C [24] was 5.07%. The viability, T/C (second compound 3.16 µM, first compound 0.0316 µM) was 128%, the viability, T/C (second compound 3.16 µM, first compound 0.1 µM) was 73.5% and the viability, T/C (second compound 3.16 µM, first compound 0.316 µM) was 30.6%. For the same compound, the viability, T/C (second compound 3.16 µM, first compound 1 µM) was 32.5%, the viability, T/C (second compound 3.16 µM, first compound 3.16 µM) was 33.3% and the viability, T/C (second compound 3.16 µM, first compound 10 µM) was 5.29%. The viability, T/C (second compound 10 µM, first compound 0.0316 µM) was 106%, the viability, T/C (second compound 10 µM, first compound 0.1 µM) was 47.8% and the viability, T/C (second compound 10 µM, first compound 0.316 µM) was 33%. The viability, T/C (second compound 10 µM, first compound 1 µM) was 30.2%, the viability, T/C (second compound 10 µM, first compound 3.16 µM) was 38.3% and the viability, T/C (second compound 10 µM, first compound 10 µM) was 0.93%.

With CC(=O)OC12COC1CC(O)C1(C)C(=O)C(O)C3=C(C)C(OC(=O)C(O)C(NC(=O)OC(C)(C)C)c4ccccc4)CC(O)(C(OC(=O)c4ccccc4)C21)C3(C)C (stereo unspecified) + C=CC(=O)N1CCN(c2nc(OCC3CCCN3C)nc3c(F)c(-c4nc(N)cc(C)c4C(F)(F)F)c(Cl)cc23)C(C)C1 the pIC50 (second compound 0.00316 µM) was > 7.50, the pIC50 (second compound 0.01 µM) was > 7.50 and the pIC50 (second compound 0.0316 µM) was > 7.50. The pIC50 (second compound 0.1 µM) was > 7.50, the pIC50 (second compound 0.316 µM) was > 7.50 and the pIC50 (second compound 1 µM) was > 7.50. For the same compound, the viability, T/C (second compound 0.00316 µM, first compound 0.0316 µM) was 7.49%, the viability, T/C (second compound 0.00316 µM, first compound 0.1 µM) was 11.8% and the viability, T/C (second compound 0.00316 µM, first compound 0.316 µM) was 14.4%. The viability, T/C (second compound 0.00316 µM, first compound 1 µM) was 20.6%, the viability, T/C (second compound 0.00316 µM, first compound 3.16 µM) was 30.4% and the viability, T/C (second compound 0.00316 µM, first compound 10 µM) was 48.1%. It also gave a viability, T/C (second compound 0.01 µM, first compound 0.0316 µM) of 7.11%, a viability, T/C (second compound 0.01 µM, first compound 0.1 µM) of 11.6% and a viability, T/C (second compound 0.01 µM, first compound 0.316 µM) of 14.8%. The viability, T/C (second compound 0.01 µM, first compound 1 µM) was 19.2%, the viability, T/C (second compound 0.01 µM, first compound 3.16 µM) was 31.9% and the viability, T/C (second compound 0.01 µM, first compound 10 µM) was 60.7%. For the same compound, the viability, T/C [1] was 7.67%, the viability, T/C [2] was 13.9% and the viability, T/C [3] was 10.9%. For the same compound, the viability, T/C [4] was 18.2%, the viability, T/C [5] was 33.2% and the viability, T/C [6] was 56.3%. The viability, T/C [7] was 6.48%, the viability, T/C [8] was 12.7% and the viability, T/C [9] was 15.2%. It also gave a viability, T/C [10] of 21.9%, a viability, T/C [11] of 30.4% and a viability, T/C [12] of 57.9%. The viability, T/C [13] was 7.29%, the viability, T/C [14] was 12% and the viability, T/C [15] was 12.1%. It also gave a viability, T/C [16] of 15.3%, a viability, T/C [17] of 30.3% and a viability, T/C [18] of 56.1%. It also gave a viability, T/C [19] of 8.02%, a viability, T/C [20] of 12.3% and a viability, T/C [21] of 12.5%. It also gave a viability, T/C [22] of 19%, a viability, T/C [23] of 35.8% and a viability, T/C [24] of 49.2%.

O=C(c1ccc(F)c(F)c1Nc1ccc(I)cc1F)N1CC(O)([C@@H]2CCCCN2)C1 was tested, and the viability, T/C (compound 0.00316 µM) was 90.5% [middle of 4 runs], the viability, T/C (compound 0.01 µM) was 97.5% [middle of 4 runs] and the viability, T/C (compound 0.0316 µM) was 90.4% [middle of 4 runs]. For the same compound, the viability, T/C (compound 0.1 µM) was 75.8% [middle of 4 runs] and the viability, T/C (compound 0.316 µM) was 68.9% [middle of 4 runs].

With C=CC(=O)N1CCN(c2nc(OCC3CCCN3C)nc3c(F)c(-c4nc(N)cc(C)c4C(F)(F)F)c(Cl)cc23)C(C)C1 (stereo unspecified) + CCn1c(-c2cccnc2C(C)OC)c2c3cc(ccc31)N1CCOC(CC(NC(=O)C(C(C)C)N(C)C(=O)C3(F)CCN(C(=O)C#CC(C)(C)N(C)C)CC3)C(=O)N3CCCC(N3)C(=O)OCC(C)(C)C2)C1 the pIC50 (second compound 0.000949 µM) was < 6.00, the pIC50 (second compound 0.003 µM) was < 6.00 and the pIC50 (second compound 0.00949 µM) was < 6.00. For the same compound, the pIC50 (second compound 0.03 µM) was < 6.00, the pIC50 (second compound 0.0949 µM) was < 6.00 and the pIC50 (second compound 0.3 µM) was < 6.00. It also gave a viability, T/C (second compound 0.000949 µM, first compound 0.00316 µM) of 94.7%, a viability, T/C (second compound 0.000949 µM, first compound 0.01 µM) of 74.5% and a viability, T/C (second compound 0.000949 µM, first compound 0.0316 µM) of 93.2%. The viability, T/C (second compound 0.000949 µM, first compound 0.1 µM) was 51%, the viability, T/C (second compound 0.000949 µM, first compound 0.316 µM) was 67.2% and the viability, T/C (second compound 0.000949 µM, first compound 1 µM) was 76.7%. It also gave a viability, T/C (second compound 0.003 µM, first compound 0.00316 µM) of 105%, a viability, T/C (second compound 0.003 µM, first compound 0.01 µM) of 66.2% and a viability, T/C (second compound 0.003 µM, first compound 0.0316 µM) of 90%. It also gave a viability, T/C (second compound 0.003 µM, first compound 0.1 µM) of 50.3%, a viability, T/C (second compound 0.003 µM, first compound 0.316 µM) of 85.4% and a viability, T/C (second compound 0.003 µM, first compound 1 µM) of 69.7%. The viability, T/C (second compound 0.00949 µM, first compound 0.00316 µM) was 56.1%, the viability, T/C (second compound 0.00949 µM, first compound 0.01 µM) was 81.2% and the viability, T/C (second compound 0.00949 µM, first compound 0.0316 µM) was 94.1%. The viability, T/C (second compound 0.00949 µM, first compound 0.1 µM) was 58.1%, the viability, T/C (second compound 0.00949 µM, first compound 0.316 µM) was 87.2% and the viability, T/C (second compound 0.00949 µM, first compound 1 µM) was 84%. For the same compound, the viability, T/C (second compound 0.03 µM, first compound 0.00316 µM) was 52%, the viability, T/C (second compound 0.03 µM, first compound 0.01 µM) was 65.9% and the viability, T/C (second compound 0.03 µM, first compound 0.0316 µM) was 79.7%. The viability, T/C (second compound 0.03 µM, first compound 0.1 µM) was 59.8%, the viability, T/C (second compound 0.03 µM, first compound 0.316 µM) was 102% and the viability, T/C (second compound 0.03 µM, first compound 1 µM) was 85.3%. The viability, T/C (second compound 0.0949 µM, first compound 0.00316 µM) was 61.3%, the viability, T/C (second compound 0.0949 µM, first compound 0.01 µM) was 76.5% and the viability, T/C (second compound 0.0949 µM, first compound 0.0316 µM) was 95%. It also gave a viability, T/C (second compound 0.0949 µM, first compound 0.1 µM) of 93.5%, a viability, T/C (second compound 0.0949 µM, first compound 0.316 µM) of 91% and a viability, T/C (second compound 0.0949 µM, first compound 1 µM) of 93.4%. For the same compound, the viability, T/C (second compound 0.3 µM, first compound 0.00316 µM) was 87.8%, the viability, T/C (second compound 0.3 µM, first compound 0.01 µM) was 90.8% and the viability, T/C (second compound 0.3 µM, first compound 0.0316 µM) was 106%. The viability, T/C (second compound 0.3 µM, first compound 0.1 µM) was 92.2%, the viability, T/C (second compound 0.3 µM, first compound 0.316 µM) was 127% and the viability, T/C (second compound 0.3 µM, first compound 1 µM) was 91.6%.
